Results taken from US9597407B2, “Targeted antimicrobial moieties” (C3 Jian, Inc., priority 2009, dated 2017).
Entries after “also recorded” stand apart in the source; their conditions may differ.

These substances were tested on bacteria (assay: Binding of targeting peptides to microorganisms (Table 3)). Details: microorganism bound by the targeting peptide; binding in aqueous buffers chosen by peptide solubility, preferably 1x PBS.

Row | Substance | Target(s)
1 | PF-142 (GIDRGCQAAR; Peptide with targeting and/or antimicrobial activity) | S. mutans
2 | PF-314 (ECLKKAIKSKALNKAFKIDVPDEVYDNLLMELEEYEK; Peptide with targeting and/or antimicrobial activity) | S. mutans
3 | PF-259 (LPFSKIGRRVSYKKKDVLKYEQSKTVLNTAQLATV; Peptide with targeting and/or antimicrobial activity) | S. epidermidis; also recorded: P. aeruginosa; also recorded: A. baumannii
4 | PF-216 (ESVDKITEALEEDGFPAKVQ; Peptide with targeting and/or antimicrobial activity) | S. mutans; also recorded: E. coli
5 | PF-155 (GRYGDDSKERQGRAQ; Peptide with targeting and/or antimicrobial activity) | C. jeikeium
6 | PF-185 (RPAQARQGPGGLIADRHIRA; Peptide with targeting and/or antimicrobial activity) | E. coli; also recorded: P. aeruginosa
7 | PF-181 (GIAPRRNEWGAVGGR; Peptide with targeting and/or antimicrobial activity) | S. epidermidis and M. luteus and E. coli and MRSA and E. faecalis and C. jeikeium
8 | PF-210 (EREDGCDAMPLP; Peptide with targeting and/or antimicrobial activity) | S. epidermidis and P. aeruginosa and C. albicans and MRSA and E. faecalis and C. jeikeium and C. jejuni
9 | PF-237 (YVKPKVGVHE; Peptide with targeting and/or antimicrobial activity) | S. epidermidis
10 | PF-182 (LPATRDKTRVPASVAGAP; Peptide with targeting and/or antimicrobial activity) | S. epidermidis; also recorded: M. luteus; also recorded: E. coli; also recorded: E. faecalis; also recorded: C. jeikeium
11 | PF-361 (NQVTEGIRLLVE; Peptide with targeting and/or antimicrobial activity) | S. epidermidis; also recorded: E. coli; also recorded: E. faecalis; also recorded: C. jejuni
12 | PF-146 (GCGKRRIITKSASRDTR; Peptide with targeting and/or antimicrobial activity) | S. epidermidis and M. luteus and P. aeruginosa and C. albicans and MRSA and C. jeikeium
13 | PF-367 (TKTPGTFTPGTGIQKTAVPL; Peptide with targeting and/or antimicrobial activity) | B. subtilis
14 | PF-195 (EMAEGSADDRLRKTPRDC; Peptide with targeting and/or antimicrobial activity) | S. epidermidis; also recorded: M. luteus; also recorded: E. faecalis; also recorded: C. jeikeium

Same assay, conditions: microorganism the targeting peptide binds; binding in aqueous buffers that varied with peptide solubility, preferably 1x PBS

Row | Substance | Target(s)
15 | 1T-193 (LMIFDKHANLKYKYGNRSFGVEAIM; Peptide with targeting and/or antimicrobial activity) [Peptide 1T-193] | S. sanguinis
16 | 1T-288 (RWVGGEPSADIYLSAKDTKT; Peptide with targeting and/or antimicrobial activity) [Peptide 1T-288] | F. nucleatum; also recorded: S. gordonii; also recorded: S. salivarious; also recorded: S. sanguinis
17 | 1T-286 (LGFFNNKADLVKADTERDNRMSSLKIKDL; Peptide with targeting and/or antimicrobial activity) [Peptide 1T-286] | S. sanguinis
18 | 1T-218 (KLIFAALGLVFLLIGLRDSRSK; Peptide with targeting and/or antimicrobial activity) [Peptide 1T-218] | F. nucleatum; also recorded: S. sanguinis
19 | 1T-217 (MLSNVLSRSVVSPNVDIPNSMVILSPLLISISNYH; Peptide with targeting and/or antimicrobial activity) [Peptide 1T-217] | F. nucleatum; also recorded: S. sanguinis
20 | 1T-261 (SFEKNKIENNLKIAQAYIYIKPKPRICQA; Peptide with targeting and/or antimicrobial activity) [Peptide 1T-261] | F. nucleatum; also recorded: S. mutans; also recorded: S. oralis; also recorded: S. sanguinis
21 | 1T-266 (RAGTWLVVDEIR; Peptide with targeting and/or antimicrobial activity) [Peptide 1T-266] | S. sanguinis

Same assay, conditions: peptide binding in aqueous buffers that varied depending on peptide solubility; preferably 1x PBS

Row | Substance | Target(s) (microorganism bound by the targeting peptide) | Target(s) (microorganisms bound by the targeting peptide)
22 | PF-C045 (FREGMGWPLSNEGSPTAPLPKHRNQV; Peptide with targeting and/or antimicrobial activity) | A. naeslundii; also recorded: T. denticola | 
23 | PF-751 (AESSPAQETT; Peptide with targeting and/or antimicrobial activity) | S. epidermidis; also recorded: E. coli; also recorded: C. albicans; also recorded: C. jeikeium | 
24 | PF-438 (QPYFQNQFKKITGYTPLQYRKEKR; Peptide with targeting and/or antimicrobial activity) |  | S. epidermidis; also recorded: E. coli; also recorded: S. pneumoniae; also recorded: C. jeikeium; also recorded: C. jejuni
25 | PF-435 (MSRWDGHSDKGEAPAGKPPMHGFGLNGENK; Peptide with targeting and/or antimicrobial activity) |  | C. jeikeium
26 | PF-792 (ALHASGIQAI; Peptide with targeting and/or antimicrobial activity) | S. mutans | 
27 | PF-765 (YLYWEVEHKPIIAKRDAYYAQLRKQKEIEEGA; Peptide with targeting and/or antimicrobial activity) | S. epidermidis and M. luteus and E. coli and MRSA and E. faecalis and C. jeikeium | 
28 | PF-402 (FIDVLKSKINEFLN; Peptide with targeting and/or antimicrobial activity) |  | S. epidermidis; also recorded: P. aeruginosa; also recorded: E. faecalis; also recorded: C. jejuni
29 | PF-492 (IQIDAASFYSISKSTIK; Peptide with targeting and/or antimicrobial activity) |  | S. mutans; also recorded: B. subtilis; also recorded: E. coli
30 | PF-501 (GSTAHKSPIGSTNNQWGMKKTPTD; Peptide with targeting and/or antimicrobial activity) |  | S. mutans
31 | PF-495 (KGIYKKRTY; Peptide with targeting and/or antimicrobial activity) |  | S. mutans; also recorded: E. coli

Same assay, conditions: peptide binding in aqueous buffers varied by peptide solubility; preferably 1x PBS

Row | Substance | Target(s) (microorganism bound by the targeting peptide)
32 | 1T-29 (GSVIKKRRKRMSKKKHRKMLRRTRVQRRKLGK; Peptide with targeting and/or antimicrobial activity) [Peptide 1T-29] | S. epidermidis; also recorded: C. jeikeium; also recorded: C. xerosis; also recorded: C. striatum; also recorded: P. aeruginosa; also recorded: S. mutans; also recorded: S. aureus
33 | 1T-61 (HATLLPAVREAISRQLLPALVPRG; Peptide with targeting and/or antimicrobial activity) [Peptide 1T-61] | P. aeruginosa
34 | 1T-40 (QRVSLWSEVEHEFR; Peptide with targeting and/or antimicrobial activity) [Peptide 1T-40] | S. mutans; also recorded: P. aeruginosa
35 | 1T-76 (EMRLSKFFRDFILWRKK; Peptide with targeting and/or antimicrobial activity) [Peptide 1T-76] | S. pneumoniae
36 | 1T-73 (GWWEELLHETILSKFKITKALELPIQL; Peptide with targeting and/or antimicrobial activity) [Peptide 1T-73] | S. pneumoniae
37 | 1T-35 (EICLTLVFPIRGSYSEAAKFPVPIHIVEDGTVELPK; Peptide with targeting and/or antimicrobial activity) [Peptide 1T-35] | P. aeruginosa
38 | 1T-112 (SDNDGKLILGTSQ; Peptide with targeting and/or antimicrobial activity) [Peptide 1T-112] | S. gordonii
39 | 1T-44 (DPALADFAAGMRAQVRT; Peptide with targeting and/or antimicrobial activity) [Peptide 1T-44] | S. mutans; also recorded: S. aureus; also recorded: S. epidermidis; also recorded: C. jeikeium; also recorded: C. striatum; also recorded: P. aeruginosa
40 | 1T-65 (HARAAVGVAELPRGAAVEVELIAAVRP; Peptide with targeting and/or antimicrobial activity) [Peptide 1T-65] | S. mutans; also recorded: S. aureus; also recorded: S. epidermidis; also recorded: C. jeikeium; also recorded: C. xerosis; also recorded: C. striatum; also recorded: P. aeruginosa
41 | 1T-83 (QKPRKNETFIGYIQRYDIDGNGYQSLPCPQN; Peptide with targeting and/or antimicrobial activity) [Peptide 1T-83] | S. pneumoniae
42 | 1T-78 (FFKTIFVLILGALGVAAGLYIEKNYIDK; Peptide with targeting and/or antimicrobial activity) [Peptide 1T-78] | S. pneumoniae
43 | 1T-42 (TVLDWLSLALATGLFVYLLVALLRADRA; Peptide with targeting and/or antimicrobial activity) [Peptide 1T-42] | S. aureus; also recorded: S. epidermidis; also recorded: C. xerosis; also recorded: C. striatum; also recorded: P. aeruginosa
44 | 1T-72 (EPTDGVACKER; Peptide with targeting and/or antimicrobial activity) [Peptide 1T-72] | P. aeruginosa
45 | 1T-117 (GPGVVGPAPFSRLPAHALNL; Peptide with targeting and/or antimicrobial activity) [Peptide 1T-117] | S. mutans
46 | 1T-55 (NHKTLKEWKAKWGPEAVESWATLLG; Peptide with targeting and/or antimicrobial activity) [Peptide 1T-55] | C. xerosis; also recorded: P. aeruginosa
